Earlier results, collected in patent US20070275008A1, “Synergistic Diabetic Phyto-Nutraceutical Composition” (priority 2006, published 2007).

Key:
[1] = system: bacterial resistance mechanism against the berberine antimicrobial; conditions: in vitro; in the presence of 5′-MHC
[2] = system: hepatic toxicity induced by paracetamol, prednisolone and bromobenzene; conditions: mice; pre-treatment during ten days

| SMILES | accumulation of berberine in the cells [1] | hepatic toxicity induced by paracetamol, prednisolone and bromobenzene [2] |
| --- | --- | --- |
| COc1cc([C@H]2Oc3cc(-c4cc(=O)c5c(O)cc(O)cc5o4)cc(OC)c3O[C@@H]2CO)ccc1O (racemic) [5′-MHC, 5′-methoxyhydnocarpin] | strong increase of accumulation of berberine in the cells | – |
| COc1cc(/C=C/C(=O)[O-])ccc1O.[Na+] [sodium ferulate] | – | improved the hepatic toxicity |
